Measured values taken from ChEMBL document CHEMBL5537151, “Design, synthesis and bioactivity evaluation of novel fusion peptides and their CPT conjugates inducing effective anti-tumor responses on HER2 positive tumors” (Eur J Med Chem, 2024).
Active and inactive are the calls of the source. The rule behind the calls is not given here. Peptide text beside a SMILES is read from it. * marks the point of attachment. X1 = CCC1(C(=O)OCCS*)C(=O)OCc2c1cc1n(c2=O)Cc2cc3ccccc3nc2-1

Tests used:
SK-BR-3 [1] = assay: Induction of apoptosis in human SK-BR-3 cells assessed as live cells at 1 uM incubated for 24 hrs by Annexin V-FITC/PI staining based flow cytometry analysis (reference value: 94.6%); format: functional
SK-BR-3 [2] = assay: Induction of apoptosis in human SK-BR-3 cells assessed as downregulation of cIAP1 protein expression at 2.5 uM by Western blot analysis; format: functional, cell-based; details: time 24-48 hrs, TDE = time-dependent effect
SK-BR-3 [3] = assay: Induction of apoptosis in human SK-BR-3 cells assessed as increase in ROS level by flow cytometry analysis; format: functional, cell-based
[4] = Drug localization in lysosome of human SK-BR-3 cells assessed as increase in red fluorescence of lysosomal dye at 10 uM incubated for 6 hrs by FITC/Lysotracker red dye based laser confocal microscopic analysis; format: ADME, subcellular; details: sk-br-3, 6 h
[5] = Toxicity in nude mouse xenografted with human SK-BR-3 cells assessed as increase in AST level at 8 umol/kg, iv administered every 3 days for 14 days; format: organism-based; details: in vivo, 336 h, dose 8 µmol/kg, time 14 day
[6] = Toxicity in nude mouse xenografted with human SK-BR-3 cells assessed as change in blood urea nitrogen level at 8 umol/kg, iv administered every 3 days for 14 days; format: organism-based; details: in vivo, 336 h, dose 8 µmol/kg, time 14 day
[7] = Toxicity in nude mouse xenografted with human SK-BR-3 cells assessed as change in creatinine level at 8 umol/kg, iv administered every 3 days for 14 days; format: organism-based; details: in vivo, 336 h, dose 8 µmol/kg, time 14 day
[8] = Toxicity in nude mouse xenografted with human SK-BR-3 cells assessed as change in total protein level at 8 umol/kg, iv administered every 3 days for 14 days; format: organism-based; details: in vivo, 336 h, dose 8 µmol/kg, time 14 day
[9] = Toxicity in nude mouse xenografted with human SK-BR-3 cells assessed as cell necrosis in liver at 8 umol/kg, iv administered every 3 days for 14 days by H and E staining based analysis; format: organism-based; details: in vivo, 336 h, dose 8 µmol/kg, time 14 day
[10] = Toxicity in nude mouse xenografted with human SK-BR-3 cells assessed as cell necrosis in lung at 8 umol/kg, iv administered every 3 days for 14 days by H and E staining based analysis; format: organism-based; details: in vivo, 336 h, dose 8 µmol/kg, time 14 day
SK-BR-3 [11] = assay: cells; details: Homo sapiens, SK-BR-3, 48 h
Description: Cytotoxicity against HER-positive human SK-BR-3 cells incubated for 48 hrs by CCK-8 assay

SK-OV-3 = assay: cells; details: Homo sapiens, SK-OV-3, 48 h
Description: Cytotoxicity against HER-positive human SK-OV-3 cells incubated for 48 hrs by CCK-8 assay

MDA-MB-231 = assay: cells; details: Homo sapiens, MDA-MB-231, 48 h
Description: Cytotoxicity against HER-negative human MDA-MB-231 cells incubated for 48 hrs by CCK-8 assay

CC[C@H](C)[C@H](NC(=O)[C@@H]1CCCN1C(=O)[C@@H](NC(=O)[C@H](C)N)C(C)C)C(=O)N[C@@H](C)C(=O)N[C@@H](CCC(N)=O)C(=O)N[C@@H](CCCCN)C(=O)N[C@@H](CSSCCOC(=O)C1(CC)C(=O)OCc2c1cc1n(c2=O)Cc2cc3ccccc3nc2-1)C(=O)NCC(=O)N[C@@H](Cc1ccccc1)C(=O)N[C@@H](CC(C)C)C(=O)NCC(=O)N[C@@H](CC(N)=O)C(=O)N1CCC[C@H]1C(=O)N[C@@H](CC(N)=O)C(=O)N[C@@H](Cc1c[nH]c2ccccc12)C(=O)NCC(=O)N[C@@H](CCCNC(=N)N)C(=O)N[C@@H](CO)C(=O)N[C@@H](Cc1c[nH]c2ccccc12)C(=O)N[C@@H](Cc1ccc(O)cc1)C(=O)N[C@@H](CC(N)=O)C(=O)N[C@@H](CCC(N)=O)C(=O)N[C@@H](CCCNC(=N)N)C(=O)N[C@@H](Cc1ccccc1)C(=O)N[C@@H](CCCCN)C(N)=O (stereo partly drawn) (H-AVPIAQKC(X1)GFLGNPNWGRSWYNQRFK-NH2)
Activity (SK-BR-3 [1]): 61.1%
Activity (SK-BR-3 [2]): Tde
Activity (SK-BR-3 [3]): Active
Drug uptake [4]: Active
Activity [5]: Toxic
Activity [6]: Non-Toxic
Activity [7]: Non-Toxic
Activity [8]: Non-Toxic
Activity [9]: Non-Toxic
Activity [10]: Non-Toxic
IC50 (SK-BR-3 [11]): 530 nM
IC50 (SK-OV-3): 2500 nM
IC50 (MDA-MB-231): 18400 nM
